ChEMBL document CHEMBL1150248, “Halogenated derivatives QSAR model using spectral moments to predict haloacetic acids (HAA) mutagenicity” (Bioorg Med Chem, 2008)

Tested on: Salmonella typhimurium
Assay: Mutagenic activity in Salmonella Typhimurium TA100 without metabolic activation
Assay type: toxicity, organism-based
Settings: salmonella enterica subsp. enterica serovar typhimurium

Row | Compound | Activity
1 | O=C(O)C(Br)(Br)Br [TRIBROMOACETIC ACID] | Non-toxic
2 | O=C(O)C(Cl)(Cl)Cl [TRICHLOROACETIC ACID] | Non-toxic
3 | O=C(O)C(Cl)(Cl)Br [BROMODICHLOROACETIC ACID] | Non-toxic
